Laboratory results: patent publication US11015223B2, “Methods for determining response to a hypomethylating agent” (THE REGENTS OF THE UNIVERSITY OF CALIFORNIA, priority 2013, dated 2021)
Several values for one entry are separate records, joined by “and”; a condition that tells them apart may be missing. Equal values may be shown once.

What was measured:
Tet2-null cells = assay: Competitive murine bone marrow transplant, percent 45.2 chimerism in peripheral blood; assay type: in vivo
Method: (§1) Age-matched Tet2^−/−; Mx-Cre^+ and Tet2^+/+; Mx-Cre^+ donor animals (CD45.2) were treated with pIpC (15 μg/g IP) for three non-consecutive days to induce excision of exon 3 of Tet2. Donor bone marrow was harvested two weeks post-pIpC and mixed in a 1:2 ratio with bone marrow harvested from 45.1 WT donors (B6.SJL-Ptprca Pepcb/BoyJ; Jackson), and was then transplanted into 45.1 recipients for a total of 1 million cells/recipient. Peripheral blood engraftment was assessed by FACS at two weeks post-transplant, at which point recipient mice were divided into treatment groups (n=7 per group) and treated with either 5-azacitidine (aza; 2.5 mg/kg IP; Santa Cruz Biotechnology) or vehicle control on the following schedule: two weeks on, two weeks off. Peripheral blood chimerism and CBC were assessed following each round of treatment. Percent 45.2 chimerism was calculated for each time point. Error bars indicate standard error of the mean (SEM) for each group, and p-values for the last time point were calculated using an unpaired two-sample t-test.
The observed association between TET2 mutations and response to treatment could be mediated directly by TET2 loss-of-function or by indirect or cell extrinsic effects. […]

MDS patients [1] = assay: Response to treatment by IWG response criteria revised in 2006 (CR/PR/HI = responders); assay type: in vivo, human
From the text: A total of 213 MDS patients treated azacitidine or decitabine were included in this study. Samples were obtained from patients treated at the Dana-Farber Cancer Institute (n=42), the MD Anderson Cancer Center (n=104), and as part of the DACO-020 (ADOPT) clinical trial of decitabine (n=67). All samples were collected with patient consent under IRB-approved protocols in accordance with the Declaration of Helsinki. There were no significant differences in baseline patient characteristics by treatment site (Table 1).
Response to treatment was assessed using IWG response criteria revised in 2006. Patients with either a complete response (CR), partial response (PR), or hematologic improvement (HI) were considered as ‘responders’ (R, n=100, 47%). whereas patients described as having ‘no response’, ‘stable disease’, ‘progressive disease’, ‘death’ before response assessment, or ‘not evaluable’ were considered ‘non-responders’ (NR, […], 53%).
Categorical variables were compared using a Fisher exact test, while continuous variables were compared using a Wilcoxon rank-sum test. A Cochran-Mantel-Haenszel (CMH) test was used to test for differences in response rate by mutational status controlling for treatment. Unadjusted and adjusted logistic regression models were used to predict response to therapy. A stepwise algorithm for logistic regression was also utilized to determine a final model; candidate variables considered for inclusion were all mutations, treatment, IPSS classification, age, and sex. The Hosmer and Lemeshow goodness-of-fit test was used to assess model fit for logistic regression models. Overall survival was calculated from the time of treatment to the time of death from any cause or was censored at the date last known alive. Unadjusted and adjusted Cox regression models were constructed for overall survival. A stepwise regression algorithm for Cox regression models was used including the same candidate variables as in the logistic regression modeling. Classification trees were also created using the Rpart package in R version 2.11.1 to classify responders based on mutational status. Cross-validation was used for tree pruning. All p-values reported are two-sided and considered significant at the 0.05 level. No adjustments were made for multiple hypothesis testing.

[2] = Peripheral blood CBC of recipient mice in competitive murine bone marrow transplant; assay type: in vivo
Method: as §1
The observed association between TET2 mutations and response to treatment could be mediated directly by TET2 loss-of-function or by indirect or cell extrinsic effects. To test whether TET2 loss-of-function can sensitize cells to hypomethylating agents, we performed a competitive murine bone marrow transplant experiment using hematopoietic cells from Tet2-null and wildtype littermate donors. […] There was no difference in pretreatment peripheral blood counts between groups. Treatment with AZA (2.5 mg/kg M-F×2 weeks) or vehicle was begun on day 20 post-transplant and repeated starting on day 48.

MDS patients [3] = settings: cited from earlier work
[4] = murine bone marrow transplant experiment
[5] = 2.5 mg/kg M-F x 2 weeks, regardless of genotype, vs vehicle

Nc1ncn([C@@H]2O[C@H](CO)[C@@H](O)[C@H]2O)c(=O)n1 [azacitidine, 5-azacytidine]
level of representation in peripheral blood (Tet2-null cells; Tet2-null cells, after two cycles, 2.5 mg/kg IP): significantly decreased level of representation | clonal advantage associated with loss of Tet2 function (Tet2-null cells; [4]): preferentially decreased | Non-Responders (NR/SD/PD/Died/NE) (%) (MDS patients [1]; all patients on the treatment): (52) % | Non-Responders (NR/SD/PD/Died/NE) N (MDS patients [1]; all patients on the treatment): 22 N | Responders (CR/PR/HI) N (MDS patients [1]; all patients on the treatment): 20 N | Responders (CR/PR/HI) (%) (MDS patients [1]; all patients on the treatment, listed as Azacitidine Alone): (48) % | Response N (MDS patients [1]; patients with ASXL1 mutation): 11 N | Response N (MDS patients [1]; patients with ATRX mutation, listed as Aza Alone): 0 (0) N and 0 N | Response N (MDS patients [1]; patients with BCOR mutation): 2 N | Response N (MDS patients [1]; patients with CBL mutation): 1 N | Response N (MDS patients [1]; patients with DNMT3A mutation): 3 N | Response N (MDS patients [1]; patients with ETV6 mutation): 2 N | Response N (MDS patients [1]; patients with EZH2 mutation): 3 N | Response N (MDS patients [1]; patients with IDH1 mutation): 1 N | Response N (MDS patients [1]; patients with IDH2 mutation): 2 N | Response N (MDS patients [1]; patients with JAK2 mutation): 2 N | Response N (MDS patients [1]; patients with KDM3A mutation, listed as Aza Alone): 0 (0) N and 0 N | Response N (MDS patients [1]; patients with KDM6B mutation): 1 N | Response N (MDS patients [1]; patients with KRAS mutation): 1 N | Response N (MDS patients [1]; patients with MAML1 mutation, listed as Aza Alone): 0 (0) N and 0 N | Response N (MDS patients [1]; patients with NF1 mutation): 2 N | Response N (MDS patients [1]; patients with NOTCH1 mutation): 2 N | Response N (MDS patients [1]; patients with NOTCH2 mutation): 2 N | Response N (MDS patients [1]; patients with NPM1 mutation, listed as Aza Alone): 0 (0) N and 0 N | Response N (MDS patients [1]; patients with NRAS mutation): 3 N | Response N (MDS patients [1]; patients with PHF6 mutation): 1 N | Response N (MDS patients [1]; patients with PRPF8 mutation): 1 N | Response N (MDS patients [1]; patients with PTPN11 mutation, listed as Aza Alone): 0 (0) N and 0 N | Response N (MDS patients [1]; patients with RUNX1 mutation): 3 N | Response N (MDS patients [1]; patients with SCAF11 mutation): 1 N | Response N (MDS patients [1]; patients with SF3B1 mutation): 3 N | Response N (MDS patients [1]; patients with SRSF2 mutation): 3 N | Response N (MDS patients [1]; patients with TET2 mutation): 6 N | Response N (MDS patients [1]; patients with TLR1 mutation, listed as Aza Alone): 0 (0) N and 0 N | Response N (MDS patients [1]; patients with TP53 mutation): 6 N | Response N (MDS patients [1]; patients with U2AF1 mutation): 4 N | Response N (MDS patients [1]; patients with ZRSR2 mutation): 1 N | WBC levels [2, 5]: significant decreases | hematocrit [2, 5]: significant decreases | total number of mature granulocytes [2, 4]: increasing | MDS patients with TET2 mutations who responded to treatment (MDS patients [3]; TET2 mutations detected by Sanger sequencing): 11 of 13 | response rate (MDS patients [3]; overall cohort of 86 patients): 52%
